Measurements published in PMC9127252, “Synthesis of sulfur karrikin bioisosteres as potential neuroprotectives” (Beilstein Journal of Organic Chemistry, 2022).

Experiments:
[1] = target: T1, AChE from Electrophorus electricus (Electrophorus electricus, UniProt O42275); experiment: biochemical; conditions: for AChE residual activity at 10 µM (% of untreated): 10 µM compound, t = 25 min, triplicates, mean ± SD; for inhibition at 10 µM: read-out: AChE inhibition at 10 µM screening concentration
T1 construct: purchased Sigma-Aldrich, Germany
T1 sequence (O42275 24-633): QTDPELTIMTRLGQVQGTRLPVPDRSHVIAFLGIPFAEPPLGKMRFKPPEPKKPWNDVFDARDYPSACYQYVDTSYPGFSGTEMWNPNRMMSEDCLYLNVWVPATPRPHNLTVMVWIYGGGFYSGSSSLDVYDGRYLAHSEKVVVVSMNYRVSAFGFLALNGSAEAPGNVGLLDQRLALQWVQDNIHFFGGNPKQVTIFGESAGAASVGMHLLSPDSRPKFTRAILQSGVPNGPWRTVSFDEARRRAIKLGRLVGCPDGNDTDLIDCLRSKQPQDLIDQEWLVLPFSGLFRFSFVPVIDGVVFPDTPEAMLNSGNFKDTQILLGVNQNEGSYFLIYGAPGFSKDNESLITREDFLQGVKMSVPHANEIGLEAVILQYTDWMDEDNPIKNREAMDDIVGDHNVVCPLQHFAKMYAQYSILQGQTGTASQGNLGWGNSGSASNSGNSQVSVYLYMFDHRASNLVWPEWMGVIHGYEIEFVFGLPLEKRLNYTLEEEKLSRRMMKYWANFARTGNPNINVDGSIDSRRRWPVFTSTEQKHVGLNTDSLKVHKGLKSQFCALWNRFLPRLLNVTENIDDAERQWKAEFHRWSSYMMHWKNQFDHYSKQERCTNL
Procedure: The compounds were further tested for their ability to inhibit AChE in vitro [24].
Acetylcholine esterase (AChE) assay
Determination of AChE activity was based on the original method by Ellman adapted for 384 well plate format. The plates were first pre-spotted with 20 nL of 10 mM DMSO solution of the compound with the use of ECHO 550® liquid handler (to reach 10 µM final concentration). Master mix solution was prepared alongside and kept on ice until dispensed in the wells. The mix consisted of 1.5 mM acetylthiocholine iodide (ATCI), 1.5 mM 5,5-dithiobis(2-nitrobenzoic acid) (DTNB) and 30 mU/mL AChE from Electrophorus electricus (Sigma-Aldrich, Germany) in 50 mM TRIS-Cl buffer, pH 7.5, containing 0.04% BSA, 50 mM NaCl and 10 mM MgCl2. 20 µL of the master mix was then dispensed into the wells of a transparent flat-bottom 384-well plate (Nunc). The microplate was briefly but vigorously mixed on an orbital shaker and placed into a Tecan SPARK microplate reader where the absorbance at 405 nm was continuously monitored for 25 min (linear range). In parallel, the no-enzyme control reaction was run to exclude interference of the compounds with the assay. The background value was subtracted from the signal of the enzyme-containing wells. Enzyme inhibition was expressed as a signal percentage compared to an uninhibited reaction at t = 25 min: % residual activity = (A405 sample/A405 control) × 100. […]
were analysed with the use of Prism 9 (GraphPad Inc., San Diego, USA). The values were measured in triplicates, and the results are p resented as means ± SD. […]

[2] = system: MAO-B; parameters: method as in PMID 31014820; conditions: cited from earlier work
[3] = system: AChE; parameters: method as in PMID 31014820; conditions: cited from earlier work; for inhibition effects on AChE: in words
[4] = system: seed germination; parameters: method as in doi:10.1016/j.sajb.2013.12.003; conditions: compared with KAR1; cited from earlier work

Row | SMILES | AChE residual activity at 10 µM (% of untreated) [1] | also measured
1 | Cc1c2ccocc-2oc1=S [Compound 9] | 95 ± 8 % of untreated | 
2 | Cc1c2ccscc-2oc1=O [Compound 8, 3-methyl-2H-thiopyrano[3,4-b]furan-2-one] |  | IC50 [2]: 30 nM; IC50 [3]: 80 ± 6 nM; inhibition effects on AChE [3]: submicromolar; germination activity [4]: lower germination activity than KAR1
3 | Cc1cc2c(C)c(=O)oc-2cs1 [Compound 20] | 90 ± 2 % of untreated | 
4 | Cc1c2ccscc-2oc1=S [Compound 27] | 97 ± 5 % of untreated | 
5 | Cc1cc2c(C)c(=O)oc-2co1 [Compound 3, reference compound] |  | IC50 [3]: 370 ± 20 nM; inhibition effects on AChE [3]: submicromolar
6 | Cc1sccc2c(C)c(=S)oc1-2 [Compound 29] | 86 ± 2 % of untreated | inhibition at 10 µM [1]: ~15%
7 | O=c1cc2ccscc-2o1 [Compound 26] | 99 ± 0.4 % of untreated | 
8 | S=c1cc2ccscc-2o1 [Compound 30] | 92 ± 1 % of untreated | 
9 | S=c1cc2ccocc-2o1 [Compound 10] | 99 ± 3 % of untreated | 
10 | Cc1cc2c(C)c(=S)oc-2co1 [Compound 11] | 93 ± 3 % of untreated | 
11 | Cc1cc2c(C)c(=S)oc-2cs1 [Compound 28] | 85 ± 1 % of untreated | inhibition at 10 µM [1]: ~15%
12 | Cc1occc2c(C)c(=S)oc1-2 [Compound 12] | 91 ± 2 % of untreated | 
13 | Cc1sccc2c(C)c(=O)oc1-2 [Compound 21] | 91 ± 2 % of untreated | 
